{"source": "patent US20250228861A1", "about": "“Cancer Treatments Using MTA-Cooperative PRMT5 Inhibitors” (AMGEN INC., priority 2022, published 2025)", "key": {"PSN1 cells [1]": {"system": "PSN1 cells", "experiment": "Combination with carboplatin, CellTiter-Glo viability, Fa and CalcuSyn CI", "conditions": "Compound B 0.0384 μM fixed + Carboplatin 3 μM, 6 days", "quoted_text": "(§4) Cell viability was measured by the CellTiter-Glo Luminescence assay. Raw luminescent values were converted to fraction affected (Fa) with the following equation:\n(§5) Synergy analysis was performed using the CalcuSyn software to determine CI scores based on the drug concentrations used and corresponding Fa values."}, "[2]": {"system": "HAP1- and HCT116 MTAP-null cells", "experiment": "6-day CellTiter-Glo viability in MTAP-null cells", "format": "cell-based", "conditions": "144 h, 6 days, read-out: proliferation, IC50", "procedure": "(§1) FIG. 1. […] Viability was measured by CellTiter-Glo and cooperativity was determined as follows: Cooperativity=WT IC50/MTAP-null IC50.\n(§2) Plated cells were at optimized cell density in 96-well black walled, clear bottom tissue culture plates in 90 μL of growth media. Cells were incubated at room temperature for 30 minutes prior to placing in incubator at 37° C. and 5% CO2 overnight. […] Secondary compound dilutions (1:100) in media were done in the 96-well V-Bottom plate by adding 3 μL of the primary dilution to 297 μL of culture media. Finally, 10 μL from the secondary compound dilutions were added to cells in triplicate (1:10 dilution; final DMSO concentration 0.1%). Once addition was complete, plates were incubated at 37° C. and 5% CO2. […] Percent of Control (POC) values were calculated as follows: POC=100*(Treatment/Vehicle). Mean POC values were then calculated for each treatment condition and used to fit dose response curves applying a four parameter logistic curve in GraphPad Prism 7."}, "MTAP-null cells": {"system": "MTAP-null cells", "experiment": "In-vitro mechanism of action studies (DNA damage, cell cycle)", "format": "cell-based", "conditions": "data not shown"}, "HCT116 MTAP-WT cells [3]": {"system": "HCT116 MTAP-WT cells", "experiment": "6-day CellTiter-Glo viability in MTAP-WT cells", "format": "cell-based", "conditions": "Homo sapiens, HCT-116, 144 h, 6 days, read-out: proliferation, IC50", "procedure": "as §1, §2"}, "[4]": {"system": "HAP1- and HCT116 MTAP-null cells", "experiment": "Global SDMA levels (ELISA / in-cell imaging) in MTAP-null cells", "format": "cell-based", "conditions": "HAP1 ELISA 3 days, HCT116 in-cell imaging 4 days", "procedure": "as §1\nHAP1 WT and MTAP-null global SDMA levels were assessed by an ELISA assay after 3 days treatment.\n(§3) HCT116 WT and MTAP-null global SDMA levels were assessed by an in-cell imaging assay after 4 days treatment."}, "[5]": {"system": "HCT116 MTAP-null tumor xenografts", "conditions": "mouse, in vivo, po", "procedure": "FIG. 2: ELISA analysis of HCT116 MTAP WT and HCT116 MTAP-null contralateral tumor cells. […] Percentage of inhibition reported relative to matched vehicle. Data represent mean±SD, n=3 for each group.\nFemale Athymic Nude mice were implanted with HCT116 MTAP-null or MTAP WT tumors. […] Data represents group means±SEM, n=10. […] STATS: P values were determined by Linear Mixed-Effects Model with a Dunnett's comparison to control."}, "[6]": {"system": "endogenous MTAP-null patient derived xenograft models", "experiment": "MTAP-null patient derived xenograft (PDX) models, tumor growth inhibition", "format": "in vivo, mice", "text": "Female NOD/SCID mice were implanted with PA5415 (pancreatic tumors) or ES11082 (esophageal tumors). […] Data represent group means±SEM, n=10. for each group.\nFor each model, 6 Female NOD/SCID mice were implanted with PDX. Mean tumor volumes for each grouping were between 100-200 mm^3.\n6 Female NOD/SCID mice were implanted with patient-derived tumor xenograft (PDX) models of pancreatic ovarian, esophageal, melanoma, lung, brain, mixed mullerian or gallbladder cancer. Mean tumor volumes for each grouping were between 100-200 mm^3."}, "PSN1 cells [7]": {"system": "PSN1 cells", "experiment": "Combination with gemcitabine, CellTiter-Glo viability, Fa and CalcuSyn CI", "conditions": "6 days", "quoted_text": "as §4, §5"}, "HCT116 MTAP-WT cells [8]": {"system": "HCT116 MTAP-WT cells", "experiment": "Global SDMA levels (in-cell imaging) in MTAP-WT cells", "format": "cell-based", "conditions": "Homo sapiens, HCT-116, 96 h, 4 days", "procedure": "as §1, §3"}, "[9]": {"system": "BXPC-3 endogenous MTAP-null xenografts", "experiment": "BxPC-3 xenografts", "format": "in vivo", "conditions": "BxPC-3 xenografts in SCID mice; p.o. once a day", "text": "FIG. 10. […] Data represent group means±SEM, n=10. […] Data represent mean±SD, n=5 for each group."}, "[10]": {"system": "DOHH-2 endogenous MTAP-null xenografts", "conditions": "mouse, in vivo, po", "procedure": "FIG. 10. […] Female SCID mice were implanted with DOHH-2 or BxPC-3 tumors. […] Data represent group means±SEM, n=10. Terminal DOHH-2 or BxPC-3 tumors were collected for SDMA ELISA analysis. Data represent mean±SD, n=5 for each group. STATS: P values were determined by Linear Mixed-Effects Model with a Dunnett's comparison to control; **p<0.01, ****p<0.0001.\nFIG. 11. […] (A-D.) Female SCID mice were implanted with DOHH-2 tumors. […] Mice were dosed orally (p.o.) once a day for ten days. Data represent group means±SEM, n=10. A.) Terminal DOHH-2 tumor volumes. […] C.) Disaggregated tumors were stained for γH2AX, MFI (mean florescent intensity). D.) Cardiac bleeds were performed and analyzed on ADVIA."}, "[11]": {"conditions": "Compound B 0.022375 μM fixed + Gemcitabine 0.001461 μM"}, "[12]": {"conditions": "Compound B 0.022375 μM fixed + Gemcitabine 0.005612 μM"}}, "note": "pIC50: −log10 of the molar value."}
{"smiles": "Cc1cc2cc(C(=O)N(Cc3ccc(C(F)(F)F)cn3)[C@@H](C)c3ncccn3)ccc2nc1N", "note": "[Compound B]", "values": [{"measurement": "Computed CI value", "setting": "PSN1 cells [1]", "value": 0.547}, {"measurement": "pIC50", "setting": "[2]", "value": 7.57}, {"measurement": "DNA damage (phosphorylation of H2AX)", "setting": "MTAP-null cells", "value": "induced DNA damage, as illustrated by increased phosphorylation of H2AX"}, {"measurement": "cell cycle", "setting": "MTAP-null cells", "value": "an arrest in the G2/M phase of the cell cycle"}, {"measurement": "pIC50", "setting": "HCT116 MTAP-WT cells [3]", "value": 6.20}, {"measurement": "pIC50", "setting": "[4]", "value": 9.70}, {"measurement": "SDMA and tumor growth in xenografts", "setting": "[5]", "value": "selectively inhibits SDMA and tumor growth"}, {"measurement": "tumor growth inhibition (TGI)", "setting": "[6]; 100 mg/kg orally once daily, majority of PDX models harboring deletion of the MTAP gene, panel of over twenty PDX models", "value": "greater than 50%"}, {"measurement": "anti-tumor growth inhibition", "setting": "[6]; PA5415 pancreatic and ES11082 esophageal PDX, p.o. once a day", "value": "significant anti-tumor growth inhibition"}, {"measurement": "Combination Fa", "setting": "PSN1 cells [7]; [11]", "value": 0.594}, {"measurement": "Computed CI value", "setting": "PSN1 cells [7]; [11]", "value": 2.081}, {"measurement": "Computed CI value", "setting": "PSN1 cells [7]; Compound B 0.022375 μM fixed + Gemcitabine 0.002045 μM", "value": 1.177}, {"measurement": "Combination Fa", "setting": "PSN1 cells [7]; [12]", "value": 0.985}, {"measurement": "Computed CI value", "setting": "PSN1 cells [7]; [12]", "value": 0.8}, {"measurement": "Combination Fa", "setting": "PSN1 cells [7]; Compound B 0.022375 μM fixed + Gemcitabine 0.007857 μM", "value": 0.986}, {"measurement": "Combination Fa", "setting": "PSN1 cells [7]; Compound B 0.022375 μM fixed + Gemcitabine 0.011 μM", "value": 0.989}, {"measurement": "pIC50", "setting": "HCT116 MTAP-WT cells [8]", "value": 7.30}, {"measurement": "anti-tumor activity", "setting": "[9]", "value": "significant anti-tumor activity"}, {"measurement": "anti-tumor activity", "setting": "[10]", "value": "significant anti-tumor activity"}, {"measurement": "DNA damage response in tumors (γH2AX)", "setting": "[10]; 100 mg/kg", "value": "increase in the DNA damage response"}, {"measurement": "cell cycle in tumors (BrdU/DAPI flow cytometry)", "setting": "[10]; 100 mg/kg", "value": "cell cycle arrest"}]}
